From PubChem BioAssay (NCI)
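Cultured in 96-well plates, cells were exposed to test compound for 48 hours across five concentrations. At the GI50, growth is halved. TGI: total growth inhibition.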

What was measured:
Experiment in all cases: NCI tumour cell line growth inhibition, 48 h
CAKI-1 renal = test system: CAKI-1 renal
SN12C renal = test system: SN12C renal
BT-549 breast = test system: BT-549 breast
LOX IMVI melanoma = test system: LOX IMVI melanoma
COLO 205 colon = test system: COLO 205 colon
NCI-H522 lung = test system: NCI-H522 lung
HOP-62 NSCLC = test system: HOP-62 NSCLC
EKVX NSCLC = test system: EKVX NSCLC
MDA-MB-435 = test system: MDA-MB-435
DMS 114 small cell lung = test system: DMS 114 small cell lung
TK-10 renal = test system: TK-10 renal
SK-MEL-28 melanoma = test system: SK-MEL-28 melanoma
OVCAR-8 ovarian = test system: OVCAR-8 ovarian
HCT-116 colon = test system: HCT-116 colon
UO-31 renal = test system: UO-31 renal
SF-539 CNS = test system: SF-539 CNS
HCC-2998 colon = test system: HCC-2998 colon
786-0 renal = test system: 786-0 renal
SNB-19 CNS = test system: SNB-19 CNS
XF 498 CNS = test system: XF 498 CNS
HCT-15 colon = test system: HCT-15 colon
NCI-H226 lung = test system: NCI-H226 lung
SK-MEL-5 melanoma = test system: SK-MEL-5 melanoma
HOP-92 NSCLC = test system: HOP-92 NSCLC
A549 NSCLC = test system: A549 NSCLC
SF-295 CNS = test system: SF-295 CNS
HOP-18 NSCLC = test system: HOP-18 NSCLC
NCI/ADR-RES ovarian = test system: NCI/ADR-RES ovarian
OVCAR-3 ovarian = test system: OVCAR-3 ovarian
MDA-MB-231 breast = test system: MDA-MB-231 breast
K-562 leukemia = test system: K-562 leukemia
PC-3 prostate = test system: PC-3 prostate
MCF7 breast = test system: MCF7 breast
SF-268 CNS = test system: SF-268 CNS
U251 CNS = test system: U251 CNS
T-47D breast = test system: T-47D breast
KM20L2 colon = test system: KM20L2 colon
UACC-62 melanoma = test system: UACC-62 melanoma
NCI-H23 lung = test system: NCI-H23 lung
RXF 393 renal = test system: RXF 393 renal
MOLT-4 leukemia = test system: MOLT-4 leukemia
KM12 colon = test system: KM12 colon
OVCAR-4 ovarian = test system: OVCAR-4 ovarian
SK-MEL-2 melanoma = test system: SK-MEL-2 melanoma
DMS 273 small cell lung = test system: DMS 273 small cell lung
HL-60(TB) leukemia = test system: HL-60(TB) leukemia
SNB-75 CNS = test system: SNB-75 CNS
IGROV1 ovarian = test system: IGROV1 ovarian
OVCAR-5 ovarian = test system: OVCAR-5 ovarian
HS 578T breast = test system: HS 578T breast
SW-620 colon = test system: SW-620 colon
ACHN renal = test system: ACHN renal
SR leukemia = test system: SR leukemia
M14 melanoma = test system: M14 melanoma
M19-MEL melanoma = test system: M19-MEL melanoma
MALME-3M melanoma = test system: MALME-3M melanoma
HT29 colon = test system: HT29 colon
SK-OV-3 ovarian = test system: SK-OV-3 ovarian
UACC-257 melanoma = test system: UACC-257 melanoma
DLD-1 colon = test system: DLD-1 colon
NCI-H460 lung = test system: NCI-H460 lung
A498 renal = test system: A498 renal
RPMI-8226 leukemia = test system: RPMI-8226 leukemia
LXFL 529 NSCLC = test system: LXFL 529 NSCLC
CCRF-CEM leukemia = test system: CCRF-CEM leukemia

Compound O=C1c2ccccc2C(=O)c2sc(Nc3cccc(Cl)c3)nc21 has a TGI (CAKI-1 renal) of 4.97 µM, a TGI (SN12C renal) of 2.84 µM and a GI50 (BT-549 breast) of 1.67 µM. For the same compound, the TGI (BT-549 breast) was 3.04 µM, the TGI (LOX IMVI melanoma) was 2.28 µM and the TGI (COLO 205 colon) was 7.68 µM. For the same compound, the TGI (NCI-H522 lung) was 3.09 µM, the TGI (HOP-62 NSCLC) was 3.19 µM and the TGI (EKVX NSCLC) was 4.89 µM. The GI50 (MDA-MB-435) was 0.258 µM, the TGI (MDA-MB-435) was 0.711 µM and the TGI (DMS 114 small cell lung) was 2.97 µM. For the same compound, the TGI (TK-10 renal) was 5.39 µM, the TGI (SK-MEL-28 melanoma) was 3.34 µM and the TGI (OVCAR-8 ovarian) was 3.27 µM. It also gave a TGI (HCT-116 colon) of 2.54 µM, a TGI (UO-31 renal) of 4 µM and a TGI (SF-539 CNS) of 3.44 µM. For the same compound, the TGI (HCC-2998 colon) was 5.3 µM, the TGI (786-0 renal) was 3.74 µM and the TGI (SNB-19 CNS) was 4.36 µM. It also gave a TGI (XF 498 CNS) of 3.18 µM, a TGI (HCT-15 colon) of 3.69 µM and a TGI (NCI-H226 lung) of 6.25 µM. The TGI (SK-MEL-5 melanoma) was 2.99 µM, the GI50 (HOP-92 NSCLC) was 1.82 µM and the TGI (HOP-92 NSCLC) was 9.1 µM. The TGI (A549 NSCLC) was 4.6 µM, the TGI (SF-295 CNS) was 3.09 µM and the TGI (HOP-18 NSCLC) was 3.48 µM. The GI50 (NCI/ADR-RES ovarian) was 2.01 µM, the TGI (NCI/ADR-RES ovarian) was 4.78 µM and the TGI (OVCAR-3 ovarian) was 1.8 µM. It also gave a GI50 (MDA-MB-231 breast) of 0.292 µM, a TGI (MDA-MB-231 breast) of 3.37 µM and a TGI (K-562 leukemia) of 4.36 µM. The GI50 (PC-3 prostate) was 1.89 µM, the TGI (PC-3 prostate) was 6.75 µM and the GI50 (MCF7 breast) was 0.596 µM. For the same compound, the TGI (MCF7 breast) was 2.46 µM, the TGI (SF-268 CNS) was 4.69 µM and the TGI (U251 CNS) was 2.97 µM. It also gave a GI50 (T-47D breast) of 1.84 µM, a TGI (T-47D breast) of 5.98 µM and a TGI (KM20L2 colon) of 20.2 µM. It also gave a TGI (UACC-62 melanoma) of 3.25 µM, a TGI (NCI-H23 lung) of 3.59 µM and a TGI (RXF 393 renal) of 3.19 µM. It also gave a TGI (MOLT-4 leukemia) of 3.05 µM, a TGI (KM12 colon) of 4.1 µM and a TGI (OVCAR-4 ovarian) of 2.72 µM. It also gave a TGI (SK-MEL-2 melanoma) of 3.79 µM, a TGI (DMS 273 small cell lung) of 3.59 µM and a TGI (HL-60(TB) leukemia) of 0.444 µM. The TGI (SNB-75 CNS) was 3.67 µM, the TGI (IGROV1 ovarian) was 5.9 µM and the TGI (OVCAR-5 ovarian) was 4.78 µM. For the same compound, the GI50 (HS 578T breast) was 2.82 µM, the TGI (HS 578T breast) was 9.15 µM and the TGI (SW-620 colon) was 2.26 µM. The TGI (ACHN renal) was 3.03 µM, the TGI (SR leukemia) was 5.47 µM and the TGI (M14 melanoma) was 3.24 µM. For the same compound, the TGI (M19-MEL melanoma) was 0.89 µM, the TGI (MALME-3M melanoma) was 2.69 µM and the TGI (HT29 colon) was 8.36 µM. For the same compound, the TGI (SK-OV-3 ovarian) was 10.9 µM, the TGI (UACC-257 melanoma) was 2.99 µM and the TGI (DLD-1 colon) was 3.95 µM. The TGI (NCI-H460 lung) was 4.25 µM, the TGI (A498 renal) was 12.6 µM and the TGI (RPMI-8226 leukemia) was 4.07 µM. The TGI (LXFL 529 NSCLC) was 2.86 µM and the TGI (CCRF-CEM leukemia) was 3.89 µM.
